This note sets out measurements from patent US20260297042A1, “BIARYLAMIDE DERIVATIVES AND THEIR USE AS PKMYT1 INHIBITORS” (CANCER RESEARCH TECHNOLOGY LIMITED, priority 2023, published 2026).

One assay deals with T1, Human PKMYT1 (Homo sapiens, UniProt Q99640).
T1 construct: Human PKMYT1 75-362 was cloned as a TEV cleavable 6xHis fusion; 6xHis (TEV cleavable) (cleaved yes); made in house; host or cells: bacterial cells
T1 sequence (Q99640 75-362): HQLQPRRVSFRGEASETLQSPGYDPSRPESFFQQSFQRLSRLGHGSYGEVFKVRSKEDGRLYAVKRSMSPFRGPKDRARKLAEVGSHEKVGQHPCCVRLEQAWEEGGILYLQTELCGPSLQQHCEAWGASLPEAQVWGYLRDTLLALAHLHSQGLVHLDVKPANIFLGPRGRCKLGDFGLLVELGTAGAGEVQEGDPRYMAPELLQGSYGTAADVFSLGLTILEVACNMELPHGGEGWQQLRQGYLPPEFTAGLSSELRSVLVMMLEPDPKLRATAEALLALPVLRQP
Briefly: PKMYT1 biochemical ADP-Glo enzymatic assay. Conditions: ADP-Glo; 15 nM PKMYT1 kinase domain, 500 µM ATP, 60 minutes at 26° C.; banded. As to the method: Human PKMYT1 75-362 was cloned as a TEV cleavable 6xHis fusion in bacterial cells. After purification on a Ni++HiTrap Chelating HP column, the His-tag was cleaved using TEV protease. Cleaved PKMYT1 was further purified on a Superdex 200 16/600 sizing column. The fractions containing PKMYT1 were pooled and concentrated using an ultrafiltration centrifugal protein concentrator. The purified protein was aliquoted, flash frozen in liquid nitrogen, and stored at −80° C.
PKMYT1 biochemical assay: Inhibition of PKMYT1 was assessed using the ADP-Glo™ Max Detection System from Promega. This assay detects the production of ADP from ATP by PKMYT1 via a two-step process ultimately involving the conversion of ADP to ATP with the latter converted to light in a coupled reaction with luciferase/luciferin. Inhibition of PKMYT1 by small molecule inhibitors results in a retardation of luminescence above background. The intrinsic ATPase activity of PKMYT1 was assessed according to the following protocol. Compounds were dosed into Corning white low volume 384 well assay plates using an Echo acoustic dispenser to generate 10-point curves spanning a 3-fold dilution series. DMSO (no inhibitor) control wells were prepared to benchmark the maximum and minimum signals in the presence and absence of PKMYT1, respectively. The PKMYT1 kinase domain was purified in-house, as described above, and added to the wells at a final concentration of 15 nM in a buffer of 50 mM HEPES (pH 7.5), 10 mM MgCl2, 1 mM EGTA, 0.01% Brij-35, 1% DMSO. 500 µM ATP was added to start the reaction with the final assay volume being 4 μl. The plate was then incubated for 60 minutes at 26° C. before the addition of 4 μl of ADP-Glo Reagent to stop the reaction and deplete the unconsumed ATP. Following a further 60 minute incubation the assay signal was developed by the addition of 8 μl ADP-Glo Max Detection Reagent. After 60 minutes the luminescence signal was read on a PHERAStar FS microplate reader (BMG Labtech).
(§1) Data analysis: Data was captured and analysed within the Dotmatics Studies software module where dose response curves were generated and IC50 values determined. Acceptance and verification of data followed strict in-house business rules which are summarised as follows. […] Technical and biological replicates of each compound are routinely tested and replicate IC50 values must fall within 3-fold of each other with dose response curves showing ‘goodness of fit’ r2 values >0.9. Failure to meet any of these defined criteria result in rejection of data.
For orientation: In ADP-Glo the light output rises with the ADP produced.

For the next assay, the target named is T2, WEE1 (Homo sapiens, UniProt P30291).
T2 construct: purchased Thermo Fisher PR7373A
T2 sequence (P30291 whole entry): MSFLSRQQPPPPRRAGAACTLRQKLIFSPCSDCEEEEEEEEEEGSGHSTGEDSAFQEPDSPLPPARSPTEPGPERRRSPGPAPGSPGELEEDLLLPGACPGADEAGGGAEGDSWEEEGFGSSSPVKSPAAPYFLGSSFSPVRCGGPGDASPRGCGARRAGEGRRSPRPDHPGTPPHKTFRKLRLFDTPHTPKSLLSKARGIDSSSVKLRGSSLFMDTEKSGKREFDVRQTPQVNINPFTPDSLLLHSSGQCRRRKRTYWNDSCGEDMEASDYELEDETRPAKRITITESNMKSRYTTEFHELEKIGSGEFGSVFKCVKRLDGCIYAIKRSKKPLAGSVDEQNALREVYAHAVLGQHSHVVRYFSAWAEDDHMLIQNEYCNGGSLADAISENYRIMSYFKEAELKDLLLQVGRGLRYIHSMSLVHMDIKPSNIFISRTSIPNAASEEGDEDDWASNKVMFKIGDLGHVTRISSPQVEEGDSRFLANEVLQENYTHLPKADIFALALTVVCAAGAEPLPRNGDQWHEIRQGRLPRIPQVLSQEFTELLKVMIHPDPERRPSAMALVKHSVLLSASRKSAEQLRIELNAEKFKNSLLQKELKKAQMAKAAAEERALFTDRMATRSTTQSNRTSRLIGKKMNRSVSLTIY
Briefly: Selectivity versus WEE1 assay (ADP-Glo enzymatic assay). Conditions: banded; for IC50: ADP-Glo, 15 nM WEE1, 60 minutes at 26° C.; for PKMYT1 vs. WEE1 selectivity: fold difference in selectivity for PKMYT1 over WEE1, ">N" = at least in this band but could be higher. The format is biochemical. As to the method:
Selectivity versus WEE1 assay: Selectivity was established using the same format as outlined for PKMYT1. After dosing of compounds via the Echo acoustic dispenser—as described above—WEE1 (Thermo Fisher PR7373A) was added to each well at a final concentration of 15 nM in a buffer of 50 mM HEPES (pH 7.5), 10 mM MgCl2, 1 mM EGTA, 0.01% Brij-35, 1% DMSO. 30 µM ATP was added to start the reaction with the final assay volume being 4 μl. The plate was then incubated for 60 minutes at 26° C. before the addition of 4 μl of ADP-Glo Reagent. Following a further 60 minute incubation the assay signal was developed by the addition of 8 μl ADP-Glo Detection Reagent. After 60 minutes the luminescence signal was read on a PHERAStar FS microplate reader (BMG Labtech).
as §1

Counter-ions that a name gives are not always drawn.

By IC50 is commonly meant the concentration at which inhibition is half-maximal. Higher therefore signals lower potency. In the case of `Cc1ccc(O)c(C)c1NC(=O)c1cnc(Nc2ccn(C(F)F)n2)s1` [BAA-025, 2-[[1-(difluoromethyl)pyrazol-3-yl]amino]-N-(3-hydroxy-2,6-dimethyl-phenyl)thiazole-5-carboxamide], on Human PKMYT1, the IC50 was 50 to 1000 nM. Also, on WEE1, the IC50 is more than 11000 nM and the “PKMYT1 vs. WEE1 selectivity” value is reported as “X (100-<1000 fold)”.

Consider `Cc1ccc(O)c(C)c1NC(=O)c1cnc(Nc2ncco2)s1` [BAA-027, N-(3-hydroxy-2,6-dimethyl-phenyl)-2-(oxazol-2-ylamino)thiazole-5-carboxamide], for which the IC50 against Human PKMYT1 lay in the range of 50 to 1000 nM. Moreover, on WEE1, the half-inhibitory concentration (IC50) is more than 11000 nM and the “PKMYT1 vs. WEE1 selectivity” value is listed as “X (100-<1000 fold)”.

In the case of `Cc1ccc(O)c(C)c1NC(=O)c1cnc(Nc2nncs2)s1` [BAA-028, N-(3-hydroxy-2,6-dimethyl-phenyl)-2-(1,3,4-thiadiazol-2-ylamino)thiazole-5-carboxamide], the results for the IC50 against Human PKMYT1 and at WEE1 were less than 50 nM and more than 11000 nM, respectively. Also, the “PKMYT1 vs. WEE1 selectivity” value on WEE1 is listed as “X (100-<1000 fold)”.

For `Cc1ccc(O)c(C)c1NC(=O)c1cnc(Nc2nc3c(s2)COCC3)s1` [BAA-029, 2-(6,7-dihydro-4H-pyrano[4,3-d]thiazol-2-ylamino)-N-(3-hydroxy-2,6-dimethyl-phenyl)thiazole-5-carboxamide], the 50% inhibitory concentration (IC50) on Human PKMYT1 is 50 to 1000 nM; against WEE1, more than 11000 nM. In addition, the “PKMYT1 vs. WEE1 selectivity” value on WEE1 was “X (100-<1000 fold)”.

`Cc1ccc(O)c(C)c1NC(=O)c1cnc(Nc2ncc[nH]2)s1` [BAA-030, N-(3-hydroxy-2,6-dimethyl-phenyl)-2-(1H-imidazol-2-ylamino)thiazole-5-carboxamide]: the IC50 against Human PKMYT1 lay within 1000 to 11000 nM. Moreover, on WEE1, the IC50 was more than 11000 nM and the “PKMYT1 vs. WEE1 selectivity” value was “>W (10-<100 fold)”.

For the molecule `Cc1ccc(O)c(C)c1NC(=O)c1cnc(Nc2ccn(C3CCN(C(=O)OC(C)(C)C)CC3)n2)s1` [BAA-031], the IC50 against Human PKMYT1 fell in the range of 50 to 1000 nM. On WEE1, the IC50 is more than 11000 nM and the “PKMYT1 vs. WEE1 selectivity” value is “>X (100-<1000 fold)”.

`Cc1ccc(O)c(C)c1NC(=O)c1cnc(Nc2ccn(CC3CCOC3)n2)s1` (stereo not drawn) [BAA-032, N-(3-hydroxy-2,6-dimethyl-phenyl)-2-[[1-(tetrahydrofuran-3-ylmethyl)pyrazol-3-yl]amino]thiazole-5-carboxamide] showed an IC50 against Human PKMYT1 of 50 to 1000 nM. For the same molecule, at WEE1, the IC50 was in the range of 1000 to 11000 nM and the “PKMYT1 vs. WEE1 selectivity” value is “W (10-<100 fold)”.

The molecule `Cc1ccc(O)c(C)c1NC(=O)c1cnc(Nc2ccn(CC(=O)N3CCOCC3)n2)s1` [BAA-033] returned a concentration for half-maximal inhibition (IC50) against Human PKMYT1 of less than 50 nM. For the same molecule, on WEE1, the IC50 was more than 11000 nM and the “PKMYT1 vs. WEE1 selectivity” value is recorded as “X (100-<1000 fold)”.

On to `Cc1ccc(O)c(C)c1NC(=O)c1cnc(Nc2ccn(CC(=O)N3CCN(C)CC3)n2)s1` [BAA-034], for which the IC50 against Human PKMYT1 is less than 50 nM. Moreover, at WEE1, the IC50 lay in the range of 1000 to 11000 nM and the “PKMYT1 vs. WEE1 selectivity” value is “X (100-<1000 fold)”.

At Human PKMYT1, `Cc1ccc(O)c(C)c1NC(=O)c1cnc(Nc2ccn(CC(=O)NCCN3CCOCC3)n2)s1` [BAA-035] had an IC50 of 50 to 1000 nM. Further, on WEE1, the half-maximal inhibitory concentration (IC50) is more than 11000 nM and the “PKMYT1 vs. WEE1 selectivity” value is listed as “X (100-<1000 fold)”.

With `Cc1ccc(O)c(C)c1NC(=O)c1cnc(Nc2ccn(C3CCCOC3)n2)s1` (stereo not drawn) [BAA-036, N-(3-hydroxy-2,6-dimethyl-phenyl)-2-[(1-tetrahydropyran-3-ylpyrazol-3-yl)amino]thiazole-5-carboxamide], the IC50 against Human PKMYT1 is less than 50 nM; at WEE1 it was more than 11000 nM. At WEE1, the “PKMYT1 vs. WEE1 selectivity” value was “Z (>5000 fold)”.

`Cc1ccc(O)c(C)c1NC(=O)c1cnc(Nc2ccn([C@@H]3CCOC3)n2)s1` [BAA-037]: the IC50 on Human PKMYT1 lay within 50 to 1000 nM. Also, at WEE1, the IC50 was more than 11000 nM and the “PKMYT1 vs. WEE1 selectivity” value is reported as “>X (100-<1000 fold)”.

The molecule `COCCn1ccc(Nc2ncc(C(=O)Nc3c(C)ccc(O)c3C)s2)n1` [BAA-040] gave an IC50 against Human PKMYT1 of 50 to 1000 nM. Further, on WEE1, the IC50 was more than 11000 nM and the “PKMYT1 vs. WEE1 selectivity” value is “X (100-<1000 fold)”.

For the molecule `Cc1ccc(O)c(C)c1NC(=O)c1cnc(Nc2ccn([C@H]3CCN(C(=O)OC(C)(C)C)C3)n2)s1` [BAA-042], the IC50 against Human PKMYT1 was in the range of 50 to 1000 nM. Also, at WEE1, the IC50 is more than 11000 nM and the “PKMYT1 vs. WEE1 selectivity” value is reported as “>X (100-<1000 fold)”.

In turn, `Cc1ccc(O)c(C)c1NC(=O)c1cnc(Nc2ccn([C@@H]3CCN(C(=O)OC(C)(C)C)C3)n2)s1` [BAA-043, tert-Butyl(3R)-3-[3-[[5-[(3-hydroxy-2.6-dimethyl-phenyl)carbamoyl]thiazol-2-yl]amino]pyrazol-1-yl]pyrrolidine-1-carboxylate] gave an IC50 on Human PKMYT1 of 50 to 1000 nM. Also, on WEE1, the IC50 was more than 11000 nM and the “PKMYT1 vs. WEE1 selectivity” value is “>Y (1000-5000 fold)”.

At Human PKMYT1, `Cc1ccc(O)c(C)c1NC(=O)c1cnc(Nc2nc3ccccc3o2)s1` [BAA-044, 2-(1,3-benzoxazol-2-ylamino)-N-(3-hydroxy-2,6-dimethyl-phenyl)thiazole-5-carboxamide] registered an IC50 of 50 to 1000 nM. Besides, at WEE1, the IC50 was more than 11000 nM and the “PKMYT1 vs. WEE1 selectivity” value is “>X (100-<1000 fold)”.

`Cc1ccc(O)c(C)c1NC(=O)c1cnc(Nc2cc3ccccn3n2)s1` [BAA-048, N-(3-hydroxy-2,6-dimethyl-phenyl)-2-(pyrazolo[1,5-a]pyridin-2-ylamino)thiazole-5-carboxamide]: the IC50 against Human PKMYT1 was 50 to 1000 nM; at WEE1, more than 11000 nM. In addition, the “PKMYT1 vs. WEE1 selectivity” value on WEE1 is “Y (1000-5000 fold)”.

The molecule `Cc1ccc(O)c(C)c1NC(=O)c1cnc(Nc2cc3ccc(Cl)cn3n2)s1` [BAA-051, 2-[(6-chloropyrazolo[1,5-a]pyridin-2-yl)amino]-N-(3-hydroxy-2,6-dimethyl-phenyl)thiazole-5-carboxamide] gave an IC50 against Human PKMYT1 of 50 to 1000 nM. Further, at WEE1, the IC50 was more than 11000 nM and the “PKMYT1 vs. WEE1 selectivity” value is given as “>X (100-<1000 fold)”.

For `Cc1ccc(O)c(C)c1NC(=O)c1cnc(Nc2ccn(CCN)n2)s1` [BAA-053, 2-[[1-(2-Aminoethyl)pyrazol-3-yl]amino]-N-(3-hydroxy-2,6-dimethyl-phenyl)thiazole-5-carboxamide], the IC50 against Human PKMYT1 was in the range of 50 to 1000 nM. Further, on WEE1, the IC50 lay in the range of 1000 to 11000 nM and the “PKMYT1 vs. WEE1 selectivity” value is on record as “W (10-<100 fold)”.

At Human PKMYT1, `Cc1ccc(O)c(C)c1NC(=O)c1cnc(Nc2ccn([C@H]3CCCNC3)n2)s1` [BAA-054, N-(3-hydroxy-2,6-dimethyl-phenyl)-2-[1-[(3S)-3-piperidyl]pyrazol-3-yllamino]thiazole-5-carboxamide (hydrochloride)] returned an IC50 of 1000 to 11000 nM. At WEE1, the IC50 is more than 11000 nM and the “PKMYT1 vs. WEE1 selectivity” value was “W (10-<100 fold)”.

`Cc1ccc(O)c(C)c1NC(=O)c1cnc(Nc2ccn(C3CCNCC3)n2)s1` [BAA-055]: the IC50 against Human PKMYT1 lay within 50 to 1000 nM. Besides, on WEE1, the IC50 is more than 11000 nM and the “PKMYT1 vs. WEE1 selectivity” value is “>X (100-<1000 fold)”.

At Human PKMYT1, `Cc1ccc(O)c(C)c1NC(=O)c1cnc(Nc2ccn([C@@H]3CCNC3)n2)s1` [BAA-056, N-(3-hydroxy-2,6-dimethyl-phenyl)-2-[[1-[(3R)-pyrrolidin-3-yl]pyrazol-3-yl]amino]thiazole-5-carboxamide hydrochloride] had an IC50 of 50 to 1000 nM. On WEE1, the IC50 is more than 11000 nM and the “PKMYT1 vs. WEE1 selectivity” value is “X (100-<1000 fold)”.
